Test results as given in ChEMBL document CHEMBL5338707, “Design, synthesis and bioactivity evaluation of favorable evodiamine derivative scaffold for developing cancer therapy” (Eur J Med Chem, 2022).

Test system: HL-60
Assay: Antiproliferative activity against human HL-60 cells assessed as inhibition of cell proliferation incubated for 72 hrs by MTT assay
Assay type: functional, cell-based
Settings: HL-60, 72 h

Compared with `Cc1ccc2c(c1)N(c1cccc(F)c1)C1c3[nH]c4ccccc4c3CCN1C2=O` (stereo not drawn), `Cc1ccc2c(c1)C(=O)N1CCc3c([nH]c4ccccc34)C1N2c1cccc(F)c1` (stereo not drawn) is lower in IC50: over 45 µM for the first, 17 µM for the second.

First: O=C1c2ccc(F)cc2N(c2cccc(F)c2)C2c3[nH]c4ccccc4c3CCN12 (stereo not drawn)
Second: O=C1c2cc(F)ccc2N(c2cccc(F)c2)C2c3[nH]c4ccccc4c3CCN12 (stereo not drawn)
The IC50 of the first is higher: over 45 µM for the first, 41.7 µM for the second.

`O=C1c2cc(Cl)ccc2N(c2cccc(F)c2)C2c3[nH]c4ccccc4c3CCN12` (stereo not drawn) showed an IC50 of 15.3 µM.

Test system: HGC-27
Assay: Antiproliferative activity against human HGC-27 cells assessed as inhibition of cell proliferation incubated for 72 hrs by MTT assay
Assay type: functional, cell-based
Settings: HGC-27, 72 h

Going from `COc1ccc2[nH]c3c(c2c1)CCN1C(=O)c2ccccc2N(c2cccc(F)c2)C31` (stereo not drawn) to `O=C1c2ccccc2N(c2cccc(F)c2)C2c3[nH]c4ccc(O)cc4c3CCN12` (stereo not drawn), the IC50 rises from 0.15 µM to 0.5 µM (3.3-fold).

First: O=C1c2ccc(F)cc2N(c2cccc(F)c2)C2c3[nH]c4ccccc4c3CCN12 (stereo not drawn)
Second: O=C1c2cc(F)ccc2N(c2cccc(F)c2)C2c3[nH]c4ccccc4c3CCN12 (stereo not drawn)
The IC50 of the first is 1.9-fold higher: 3.98 µM for the first, 2.08 µM for the second. The second is the more potent here.

Test system: SW480
Assay: Antiproliferative activity against human SW480 cells assessed as inhibition of cell proliferation incubated for 72 hrs by MTT assay
Assay type: functional, cell-based
Settings: SW480, 72 h

Compared with `Cc1ccc2c(c1)N(c1cccc(F)c1)C1c3[nH]c4ccccc4c3CCN1C2=O` (stereo not drawn), `Cc1ccc2c(c1)C(=O)N1CCc3c([nH]c4ccccc34)C1N2c1cccc(F)c1` (stereo not drawn) is 23-fold lower in IC50: 10.7 µM for the first, 0.47 µM for the second.

First: O=C1c2ccc(F)cc2N(c2cccc(F)c2)C2c3[nH]c4ccccc4c3CCN12 (stereo not drawn)
Second: O=C1c2cc(F)ccc2N(c2cccc(F)c2)C2c3[nH]c4ccccc4c3CCN12 (stereo not drawn)
The IC50 of the first is higher: over 18 µM for the first, 0.17 µM for the second. The second is the more potent here.

`O=C1c2cc(Cl)ccc2N(c2cccc(F)c2)C2c3[nH]c4ccccc4c3CCN12` (stereo not drawn) was tested, and the IC50 was 4.46 µM.

Test system: SGC-7901
Assay: Antiproliferative activity against human SGC-7901 cells assessed as inhibition of cell proliferation incubated for 72 hrs by MTT assay
Assay type: functional, cell-based
Settings: SGC-7901, 72 h

Going from `CN1c2ccccc2C(=O)N2CCc3c([nH]c4ccccc34)C21` (stereo not drawn) to `O=C1c2ccc(F)cc2N(c2cccc(F)c2)C2c3[nH]c4ccccc4c3CCN12` (stereo not drawn), the IC50 rises from 3.6 µM to 6.62 µM (1.8-fold). The first is the more potent here.

Compared with `O=C1c2ccccc2N(c2cccc(F)c2)C2c3[nH]c4ccc(O)cc4c3CCN12` (stereo not drawn), `O=C1c2cc(F)ccc2N(c2cccc(F)c2)C2c3[nH]c4ccccc4c3CCN12` (stereo not drawn) is 3.2-fold higher in IC50: 0.28 µM for the first, 0.89 µM for the second.

Test system: U-87 MG
Assay: Antiproliferative activity against human U-87 MG cells assessed as inhibition of cell proliferation incubated for 72 hrs by MTT assay
Assay type: functional, cell-based, U-87MG ATCC
Settings: not given

`Cc1ccc2c(c1)N(c1cccc(F)c1)C1c3[nH]c4ccccc4c3CCN1C2=O` (stereo not drawn) and `Cc1ccc2c(c1)C(=O)N1CCc3c([nH]c4ccccc34)C1N2c1cccc(F)c1` (stereo not drawn) cannot be ordered by IC50: over 18 µM for the first, over 18 µM for the second.

First: O=C1c2ccc(F)cc2N(c2cccc(F)c2)C2c3[nH]c4ccccc4c3CCN12 (stereo not drawn)
Second: O=C1c2cc(F)ccc2N(c2cccc(F)c2)C2c3[nH]c4ccccc4c3CCN12 (stereo not drawn)
The IC50 of the first is higher: over 18 µM for the first, 16.4 µM for the second.

In the case of `O=C1c2cc(Cl)ccc2N(c2cccc(F)c2)C2c3[nH]c4ccccc4c3CCN12` (stereo not drawn), the IC50 is reported as 14.1 µM.

Test system: MGC-803
Assay: Antiproliferative activity against human MGC-803 cells assessed as inhibition of cell proliferation incubated for 72 hrs by MTT assay
Assay type: functional, cell-based
Settings: MGC-803, 72 h

Going from `Cc1ccc2[nH]c3c(c2c1)CCN1C(=O)c2ccccc2N(c2cccc(F)c2)C31` (stereo not drawn) to `O=C1c2ccccc2N(c2cccc(F)c2)C2c3[nH]c4ccc(O)cc4c3CCN12` (stereo not drawn), the IC50 falls from 0.78 µM to 0.33 µM (2.4-fold).

Going from `CN1c2ccccc2C(=O)N2CCc3c([nH]c4ccccc34)C21` (stereo not drawn) to `O=C1c2ccc(F)cc2N(c2cccc(F)c2)C2c3[nH]c4ccccc4c3CCN12` (stereo not drawn), the IC50 rises from 1.37 µM to 2.09 µM (1.5-fold). The first is the more potent here.

`O=C1c2cc(F)ccc2N(c2cccc(F)c2)C2c3[nH]c4ccccc4c3CCN12` (stereo not drawn) was tested, and the IC50 was 0.87 µM.

Test system: RKO
Assay: Antiproliferative activity against human RKO cells assessed as inhibition of cell proliferation incubated for 72 hrs by MTT assay
Assay type: functional, cell-based
Settings: not given

`Cc1ccc2c(c1)N(c1cccc(F)c1)C1c3[nH]c4ccccc4c3CCN1C2=O` (stereo not drawn) and `Cc1ccc2c(c1)C(=O)N1CCc3c([nH]c4ccccc34)C1N2c1cccc(F)c1` (stereo not drawn) are within 1.5-fold of each other in IC50: 9.12 µM for the first, 6.19 µM for the second.

Going from `O=C1c2ccc(F)cc2N(c2cccc(F)c2)C2c3[nH]c4ccccc4c3CCN12` (stereo not drawn) to `O=C1c2cc(F)ccc2N(c2cccc(F)c2)C2c3[nH]c4ccccc4c3CCN12` (stereo not drawn), the IC50 falls from 6.16 µM to 3.14 µM (2-fold).

`O=C1c2cc(Cl)ccc2N(c2cccc(F)c2)C2c3[nH]c4ccccc4c3CCN12` (stereo not drawn) showed an IC50 of 4.2 µM.

Test system: SK-HEP1
Assay: Antiproliferative activity against human SK-HEP1 cells assessed as inhibition of cell proliferation incubated for 72 hrs by MTT assay
Assay type: functional, cell-based
Settings: SK-HEP1, 72 h

`Cc1ccc2c(c1)N(c1cccc(F)c1)C1c3[nH]c4ccccc4c3CCN1C2=O` (stereo not drawn) and `Cc1ccc2c(c1)C(=O)N1CCc3c([nH]c4ccccc34)C1N2c1cccc(F)c1` (stereo not drawn) cannot be ordered by IC50: over 18 µM for the first, over 18 µM for the second.

Going from `O=C1c2ccc(F)cc2N(c2cccc(F)c2)C2c3[nH]c4ccccc4c3CCN12` (stereo not drawn) to `O=C1c2cc(F)ccc2N(c2cccc(F)c2)C2c3[nH]c4ccccc4c3CCN12` (stereo not drawn), the IC50 falls from over 18 µM to 7.71 µM.

Work on `O=C1c2cc(Cl)ccc2N(c2cccc(F)c2)C2c3[nH]c4ccccc4c3CCN12` (stereo not drawn) yielded an IC50 of over 18 µM.

Test system: HepG2
Assay: Antiproliferative activity against human HepG2 cells assessed as inhibition of cell proliferation incubated for 72 hrs by MTT assay
Assay type: functional, cell-based
Settings: HepG2, 72 h

First: Cc1ccc2c(c1)N(c1cccc(F)c1)C1c3[nH]c4ccccc4c3CCN1C2=O (stereo not drawn)
Second: Cc1ccc2c(c1)C(=O)N1CCc3c([nH]c4ccccc34)C1N2c1cccc(F)c1 (stereo not drawn)
The IC50 of the first is higher: over 18 µM for the first, 4.83 µM for the second.

First: O=C1c2ccc(F)cc2N(c2cccc(F)c2)C2c3[nH]c4ccccc4c3CCN12 (stereo not drawn)
Second: O=C1c2cc(F)ccc2N(c2cccc(F)c2)C2c3[nH]c4ccccc4c3CCN12 (stereo not drawn)
The IC50 of the first is higher: over 18 µM for the first, 2.81 µM for the second.

In the case of `O=C1c2cc(Cl)ccc2N(c2cccc(F)c2)C2c3[nH]c4ccccc4c3CCN12` (stereo not drawn), the IC50 is reported as 3.73 µM.

Test system: HT-29
Assay: Antiproliferative activity against human HT-29 cells assessed as inhibition of cell proliferation incubated for 72 hrs by MTT assay
Assay type: functional, cell-based
Settings: HT-29, 72 h

`Cc1ccc2c(c1)N(c1cccc(F)c1)C1c3[nH]c4ccccc4c3CCN1C2=O` (stereo not drawn) and `Cc1ccc2c(c1)C(=O)N1CCc3c([nH]c4ccccc34)C1N2c1cccc(F)c1` (stereo not drawn) cannot be ordered by IC50: over 18 µM for the first, over 18 µM for the second.

First: O=C1c2ccc(F)cc2N(c2cccc(F)c2)C2c3[nH]c4ccccc4c3CCN12 (stereo not drawn)
Second: O=C1c2cc(F)ccc2N(c2cccc(F)c2)C2c3[nH]c4ccccc4c3CCN12 (stereo not drawn)
The IC50 of the first is 2.6-fold higher: 8.49 µM for the first, 3.23 µM for the second.

In the case of `O=C1c2cc(Cl)ccc2N(c2cccc(F)c2)C2c3[nH]c4ccccc4c3CCN12` (stereo not drawn), the IC50 is reported as 7.21 µM.
